Laboratory results reported in article PMC5733478, “A Non-imaging High Throughput Approach to Chemical Library Screening at the Unmodified Adenosine-A3 Receptor in Living Cells” (Frontiers in Pharmacology, 2017).
Structures can show the parent of a compound that is named as a salt.

target: T1, human A3AR (Homo sapiens, UniProt P0DMS8); assay: LOPAC library primary screen: single concentration (10 μM) inhibition of 25 nM CA200645 binding, PHERAstar FS; conditions: not given
T1 construct: expressed in transfected cells
T1 sequence (P0DMS8 1-318): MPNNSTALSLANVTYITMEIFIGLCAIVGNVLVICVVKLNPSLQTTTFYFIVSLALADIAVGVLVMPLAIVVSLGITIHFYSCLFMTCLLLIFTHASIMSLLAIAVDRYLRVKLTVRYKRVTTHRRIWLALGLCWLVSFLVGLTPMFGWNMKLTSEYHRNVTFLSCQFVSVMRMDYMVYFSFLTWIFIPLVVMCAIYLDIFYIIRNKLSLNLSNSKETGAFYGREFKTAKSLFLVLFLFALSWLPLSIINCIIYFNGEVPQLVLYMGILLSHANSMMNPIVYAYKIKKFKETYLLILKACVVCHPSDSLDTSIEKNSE

Molecule | % 25 nM CA200645 binding [%]
NC(C(=O)O)C(O)C(=O)O (racemic) [DL-threo-beta-hydroxyaspartic acid] | 97.0 ± 9.5
CCC1(c2ccccc2)C(=O)NCNC1=O [Primidone] | 96.1 ± 4.9
CC(C)N(CCC(C(N)=O)(c1ccccc1)c1ccccn1)C(C)C (stereo not drawn) [Disopyramide phosphate] | 98.5 ± 7.6
CC(C)NCC(O)COc1cccc2ccccc12.Cl (racemic) [(±)-Propranolol hydrochloride] | 106.0 ± 10.5
CN(C)C(=O)[C@H](O)[C@H](Cc1ccccc1)NC(=O)c1cc2cc(Cl)ccc2[nH]1 [CP-91149] | 87.6 ± 14.6
C[N+]1(C)CCC(OC(=O)C(c2ccccc2)c2ccccc2)CC1.[I-] [4-DAMP methiodide] | 84.9 ± 19.8
CC(C(O)c1ccc(O)cc1)N1CCC(Cc2ccccc2)CC1.CC(C(O)c1ccc(O)cc1)N1CCC(Cc2ccccc2)CC1.O=C(O)C(O)C(O)C(=O)O (stereo not drawn) [Ifenprodil tartrate] | 95.4 ± 10.6
C[C@H](N)CN1CCc2ccc(Br)cc21.C[C@H](N)CN1CCc2ccc(Br)cc21.O=C(O)/C=C/C(=O)O [VER-3323 hemifumarate salt] | 107.7 ± 7.9
O=C([O-])c1cc2cc(Cc3cccnc3)ccc2o1.[Na+] [Furegrelate sodium] | 89.9 ± 4.6
C[n+]1cc2c3c(ccc2c2ccc4cc5c(cc4c21)OCO5)OCO3 [Sanguinarine chloride] | 38.9 ± 20.6
COc1cccc(-c2cc(=O)c3ccccc3o2)c1N [PD 98,059] | 80.7 ± 2.6
Brc1c(NC2=NCCN2)ccc2nccnc12 [UK 14,304] | 102.1 ± 10.4
Cl.Cn1ccc2cc(NC(=O)Nc3cccnc3)ccc21 [SB 200646 hydrochloride] | 81.7 ± 19.9
Nc1nc(Nc2ccccc2)nc2c1ncn2[C@@H]1O[C@H](CO)[C@@H](O)[C@H]1O [CV1808, 2-phenylaminoadenosine, reference compound] | 55.3 ± 19.9
CCCCCCCCCCC/C=C\C(C)(C)/C=C\CCCC(=O)O [7,7-Dimethyl-(5Z,8Z)-eicosadienoic acid] | 100.3 ± 12.4
CN1CCc2cccc3c2[C@H]1Cc1ccc(O)c(O)c1-3 [Apomorphine hydrochloride hemihydrate] | 95.0 ± 6.4
CN1CCN(c2nc3cc(C(F)(F)F)ccc3n3cccc23)CC1.O=C(O)/C=C\C(=O)O [CGS-12066A maleate] | 97.3 ± 10.3
Br.Cc1cccc(C2CN(C)CCc3c2cc(O)c(O)c3Cl)c1 (stereo not drawn) [SKF 83959 hydrobromide] | 97.9 ± 6.2
O=C(O)CC[N+](=O)[O-] [3-Nitropropionic acid] | 111.3 ± 13.2
O=C(O)c1nn(Cc2ccc(Cl)cc2Cl)c2ccccc12 [Lonidamine] | 94.6 ± 7.2
C=CCN1C[C@H](C)N([C@H](c2ccc(C(=O)N(CC)CC)cc2)c2cccc(OC)c2)C[C@H]1C [SNC80] | 94.8 ± 9.3
O=C(O)C1CN(CCCP(=O)(O)O)CCN1 (racemic) [(±)-CPP] | 97.2 ± 1.5
Nc1ncn([C@@H]2O[C@H](CO)[C@@H](O)[C@H]2O)c(=O)n1 [5-azacytidine] | 92.0 ± 10.7
CC(=O)NNC(=O)N1Cc2ccccc2Oc2ccc(Cl)cc21 [SC 19220] | 105.0 ± 9.4
Cl.Oc1cc2c(cc1O)C(c1ccccc1)CNCC2 (racemic) [(±)-SKF-38393 hydrochloride] | 99.4 ± 9.0

Molecule | % 25 nM CA200645 binding [%]
O=C(Nc1cccc(C(=O)Nc2ccc(S(=O)(=O)O)c3cc(S(=O)(=O)O)cc(S(=O)(=O)O)c23)c1)Nc1cccc(C(=O)Nc2ccc(S(=O)(=O)O)c3cc(S(=O)(=O)O)cc(S(=O)(=O)O)c23)c1 [NF 023] | 83.8 ± 25.8
O=C(Nc1ccncc1)c1cc([N+](=O)[O-])ccc1Cl [T0070907] | 110.9 ± 6.0
NC(=O)OCC(COC(N)=O)c1ccccc1 [Felbamate] | 98.7 ± 4.1
CC[N+](CC)(CC)CCOc1cccc(OCC[N+](CC)(CC)CC)c1OCC[N+](CC)(CC)CC [Gallamine triethiodide] | 78.3 ± 38.7
CC(N)Cc1c[nH]c2ccc(OCc3cccs3)cc12 (stereo not drawn) [BW 723C86] | 102.2 ± 11.4
Cl.Fc1ccc(C(OCCCc2c[nH]cn2)c2ccc(F)cc2)cc1 | 99.1 ± 1.1
CC(N)(Cc1ccc(O)cc1)C(=O)O (racemic) [DL-alpha-Methyl-p-tyrosine] | 102.4 ± 5.8
N=C(N)N1CCc2ccccc2C1 [Debrisoquin sulfate] | 81.0 ± 16.3
O=c1[nH]c(=S)[nH]c(-c2ccccc2)c1Cc1c(O)ccc2ccccc12 [Cambinol] | 94.8 ± 8.3
R(-)-Me5 | 100.1 ± 8.0
Br.Br.CN(C)CCCc1cc(C(=O)Nc2ccc(-c3ccncc3)cc2)ccc1O [GR 55562 dihydrobromide] | 92.8 ± 13.3
N[C@@H](COP(=O)(O)O)C(=O)O [O-Phospho-L-serine] | 93.4 ± 14.4
CC(C)NCC(O)c1ccc(O)c(O)c1.Cl (racemic) [(±)-Isoproterenol hydrochloride] | 95.3 ± 10.4
CC[C@@H]1C(=O)OC[C@@H]1Cc1cncn1C [Pilocarpine nitrate] | 92.9 ± 2.4
CCCCCCCCCCCCCC(=O)O[C@@H]1[C@@H](C)[C@@]2(O)[C@@H](C=C(CO)C[C@]3(O)C(=O)C(C)=C[C@@H]23)[C@@H]2C(C)(C)[C@]12OC(C)=O [Phorbol 12-myristate 13-acetate] | 80.3 ± 5.6
COc1cc(C(O)C(=O)O)ccc1O (racemic) [(±)-Vanillylmandelic acid] | 97.4 ± 12.9
Cl.O=C(Cc1ccc(Cl)c(Cl)c1)N1CCCCC1CN1CCCC1 (stereo not drawn) [BRL 52537 hydrochloride] | 112.4 ± 4.2
CCCCN(CC)c1nc(C)nc2c1c(C)cn2-c1c(C)cc(C)cc1C.Cl [CP-154526 hydrochloride] | 77.3 ± 23.1
Picrotoxin | 96.8 ± 4.1
CC(=O)[C@H]1CC[C@H]2[C@@H]3CC[C@H]4C[C@H](O)CC[C@]4(C)[C@H]3CC[C@]12C [5alpha-Pregnan-3alpha-ol-20-one] | 85.2 ± 19.4
N[C@@H](Cc1ccc(F)cc1)C(=O)O [p-Fluoro-L-phenylalanine] | 98.5 ± 8.4
CC(N)C(=O)OC(C)(C)Cc1ccc(Cl)cc1 (stereo not drawn) [Alaproclate hydrochloride] | 104.8 ± 8.1
COc1ccc2c(c1)c(CC(=O)O)c(C)n2C(=O)c1ccc(Cl)cc1 [Indomethacin] | 72.9 ± 18.3
CC(C)C(=O)c1c(C(C)C)nn2ccccc12 [Ibudilast] | 82.8 ± 12.0

same assay, conditions: 10 μM compound, 25 nM CA200645, A3AR CHO cells

Molecule | hit in LOPAC primary screen (inhibited the binding of CA200645 by >40%)
Nc1nc(Nc2ccccc2)nc2c1ncn2[C@@H]1O[C@H](CO)[C@@H](O)[C@H]1O [CV1808, 2-phenylaminoadenosine, reference compound] | identified
Cn1c(=O)c2c(nc(/C=C/c3cccc(Cl)c3)n2C)n(C)c1=O [CSC, reference compound] | not identified as hits

same assay, conditions: % of 25 nM CA200645 binding in the presence of 10 μM compound, LOPAC full screen, A3AR CHO cells

Molecule | % Total CA200645 binding [%]
Nc1nc(Nc2ccccc2)nc2c1ncn2[C@@H]1O[C@H](CO)[C@@H](O)[C@H]1O [CV1808, 2-phenylaminoadenosine, reference compound] | 53.3 ± 19.9

same assay, conditions: % of control wells (1% DMSO and 25 nM CA200645); compounds at 10 µM; whole live cells expressing A3AR; mean ± SD, three experiments in duplicate

Molecule | % 25 nM CA200645 binding [%]
NCCSSCCN [Cystamine dihydrochloride] | 96.6 ± 12.8

same assay, conditions: compounds tested at 10 µM; % of control wells (1% DMSO and 25 nM CA200645); whole live cells expressing the A3AR; mean ± SD, three experiments in duplicate

Molecule | % 25 nM CA200645 binding [%]
Oc1cc2c(cc1O)CN(C(=S)NCCc1ccc(Cl)cc1)CCC2 [Capsazepine] | 90.6 ± 11.8
